According to patent EP0012161A1, “Application of 0-(2-nitro-4-methyl-phenyl)-0-methyl-N-isopropyl-phosphoroamido-thioat for inhibition of side growth of tobacco-plants” (BAYER AG, priority 1978, dated 1980):

Legend:
Assay type in all cases: in vivo
[1] = test system: Alnus glutinosa; assay: Growth inhibition in woody plants (Alnus glutinosa), greenhouse spray test; settings: 1008 h, one-year seedlings sprayed to run-off, increase in growth measured after 6 weeks, 100 % = growth standstill, 0 % = growth as control, read-out: Wuchshemmung in %
Text: (§1) Lösungsmittel : 30 Gewichtsteile Dimethylformamid Emulgator: 1 Gewichtsteil Polyoxyethylen-SorbitanMonolaurat
(§2) Zur Herstellung einer zweckmäßigen Wirkstoffzubereitung vermischt man 1 Gewichtsteil Wirkstoff mit den angegebenen Mengen Lösungsmittel und Emulgator und füllt mit Wasser auf die gewünschte Konzentration auf.
(§3) Einjährige Sämlinge mit einer Wuchshöhe von 25 cm werden mit den Wirkstoffzubereitungen bis zum Abtropfen besprüht. Nach 6 Wochen Wachstum im Gewächshaus wird der Zuwachs gemessen und die Wuchshemmung in Prozent des Zuwachses der Kontrollpflanzen berechnet. 100 % bedeuten den Stillstand des Wachstums und 0 % ein Wachstum entsprechend dem der Kontrollpflanzen.

[2] = test system: Acer pseudoplatanus; assay: Growth inhibition in woody plants (Acer pseudoplatanus), greenhouse spray test; settings: 1008 h, one-year seedlings sprayed to run-off, increase in growth measured after 6 weeks, 100 % = growth standstill, 0 % = growth as control, read-out: Wuchshemmung in %
Text: as §1, §2, §3

[3] = test system: Tabak; assay: Inhibition of side shoot growth in tobacco, greenhouse spray test after decapitation; settings: 504 h, decapitated plants sprayed to run-off, weight of side shoots after 3 weeks versus control, 100 % = no side shoots, read-out: Wuchshemmung in %
Text: Lösungsmittel: 30 Gewichtsteile Dimethylformamid Emulgator: 1 Gewichtsteil Polyoxyethylensorbitan-Monolaurat
Zur Herstellung einer zweckmäßigen Wirkstoffzubereitung vermischt man 1 Gewichsteil Wirkstoff mit den angegebenen Mengen Lösungsmittel und.Emulgator und füllt mit Wasser auf die gewünschte Konzentration auf.
Tabakpflanzen werden im Gewächshaus bis zur Entfaltung des 7. Laubblattes angezogen. In diesem Stadium wird die apikale Vegetationsspitze der Pflanzen entfernt und die Pflanzen werden bis zum Abtropfen mit den Wirkstoffzubereitungen besprüht. Nach 3 Wochen werden die Seitentriebe der Pflanzen herausgebrochen und gewogen. Das Gewicht der Seitentriebe der behandelten Pflanzen wird mit dem der Kontrollpflanzen verglichen. 100 % Hemmung bedeutet das Fehlen von Seitentrieben und 0 t ein Wachstum der Seitentriebe entsprechend dem der Kontrollpflanzen.

[4] = test system: Weizen; assay: Growth inhibition in wheat, greenhouse spray test; settings: 504 h; active compound concentration 0,05 %; plants at 2-leaf stage sprayed dripping wet; increase in growth measured after 3 weeks; 100 = growth standstill; read-out: Wuchshemmung in %
Text: (§4) Lösungsmittel: 30 Gewichtsteile Dimethylformamid Emulgator: 1 Gewichtsteil Polyoxyethylen-SorbitanMonolaurat
as §2
(§5) Weizenpflanzen werden im Gewächshaus bis zum 2-BlattStadium angezogen. In diesem Stadium werden die Pflanzen tropfnaß mit den Wirkstoffzubereitungen besprüht. Nach 3 Wochen wird bei allen Pflanzen der Zuwachs gemessen und die Wuchshemmung in % des Zuwachses der Kontrollpflanzen berechnet. Es bedeuten 100 t den Stillstand des Wachstums und 0 % ein Wachstum entsprechend dem der Kontrollpflanzen.

[5] = test system: Sojabohnen; assay: Growth inhibition in soybeans, greenhouse spray test; settings: 504 h; active compound concentration 0,05 %; plants with first trifoliate leaf unfolded sprayed dripping wet; increase in growth measured after 3 weeks; 100 % = growth standstill; read-out: Wuchshemmung in %
Text: as §4, §2
as §5, with “Sojabohnenpflanzen werden” for “Weizenpflanzen werden”, “bis zur vollen Entfaltung des ersten Folgeblattes” for “bis zum 2-BlattStadium”, “100 %” for “100 t”, “und O” for “und 0”

[6] = active compound concentration 0,1 %
[7] = active compound concentration 0,4 %

SMILES: COP(=S)(NC(C)C)Oc1ccc(C)cc1[N+](=O)[O-] (stereo not drawn)
- inhibition at 0.1 % [1, 6]: 50%
- inhibition at 0.4 % [1, 7]: 75%
- inhibition at 0.1 % [2, 6]: 65%
- inhibition at 0.4 % [2, 7]: 83%
- inhibition at 0.2 % ([3]; active compound concentration 0,2 %): 92%
- inhibition at 0.4 % [3, 7]: 99%
- inhibition at 0.6 % ([3]; active compound concentration 0,6 %): 99%
- inhibition at 0.05 % [4]: 35%
- inhibition at 0.05 % [5]: 80%
